SMILES strings stand for the structures.

Series [1] concerns rabbit adipose tissue. Put plainly: inhibition of glucose incorporation in rabbit adipose tissue slices. The note with it: 100 micrograms per milliliter, 2 hours. Format: cell-based. From the text:
(§1) The manner in which they cause this effect is not known with certainty; it is believed that they interfere with the synthesis of fatty acids in the tissues. Their effectiveness for this purpose has been ascertained by immersing samples of mammalian liver or adipose tissue in a liquid medium containing radioactive glucose and the test chemical for a period of time, then isolating the lipid from the treated tissue and determining the incorporation of the radioactive carbon into the lipid by means of scintillation counting techniques. These tests were conducted with both liver and adipose tissues, because in some animals the primary site of lipogenesis appears to be liver tissue, while in others it appears to be adipose tissue. The test animals were pigs, sheep, rabbits, cats and dogs.
(§2) Described in more detail, the tests were conducted according to the following general procedure: […]
(§3) The incubation was terminated by addition of 0.25 milliliter of 1 N sulfuric acid. […] The extracts were washed according to Folch et al. (J. Biol. Chem., 226, 497-509, (1957)), air dried, and counted in a liquid scintillation counter with 15 milliliters of counting fluid (two parts toluene containing 0.4% w/v New England Nuclear Omnifluor: 1 part Triton X-100). […] From the data obtained was calculated the percent inhibition of lipid synthesis by the test compound in each case. […]

Series [2] has as its system lipogenesis in swine adipose tissue. Put plainly: in vivo test of inhibition of lipogenesis in swine, compound in feed, adipose tissue biopsy samples. Details: species or system pig (swine). The note with it: young, growing pigs, in feed approximately 50 milligrams per kilogram per day for seven days. The procedure:
The effect of compound 2 on inhibition of lipogenesis in swine was confirmed by an in vivo test in which Compound 2 was included in the feed given to young, growing pigs for seven days, at a dosage of approximately 50 milligrams of Compound 2 per kilogram of the pig's body weight per day. Adipose tissue biopsy samples were taken at days 0, 6, 7 and 13 (one week off the drug) and the effect of the test compound on lipogenesis was determined using tissue slices prepared from the biopsy samples, by the procedure used in the in vitro tests.

The subject of series [3] is cat liver. Put plainly: inhibition of glucose utilization in cat liver slices. Format: cell-based. The note with it: 100 micrograms per milliliter, 2 hours.
From the text: as §1, §2, §3

Series [4] concerns swine adipose tissue. Put plainly: inhibition of lipogenesis (incorporation of radioactive glucose into lipid) in pig adipose tissue slices. Type of series: cell-based, pig (swine). The note with it: Sus scrofa, glucose-U-14C, 100 micrograms per milliliter, 37° C., 2 hours, vs control, read-out: Percent Inhibition of lipogenesis.
From the text: as §1
Described in more detail, the tests were conducted according to the following general procedure:
Tissue slices (200 milligrams for liver; 150 milligrams for adipose tissue) were incubated, at 37° C. for 2 hours with shaking in 3 milliliters of Krebs-Ringer bicarbonate solution containing one-half the normal calcium ion concentration, 60 micromoles of glucose, 0.5 micro-Curie of glucose-U-^14 C, 300 microunits of insulin, and 5% dimethyl sulfoxide (DMSO). The test compounds were added as a solution or a suspension in DMSO and were present at a concentration of 100 micrograms per milliliter of the incubation mixture.
The incubation was terminated by addition of 0.25 milliliter of 1 N sulfuric acid. The incubation mixture was extracted with a total of 25 milliliters of chloroform:methanol (2:1, v/v). The extracts were washed according to Folch et al. (J. Biol. Chem., 226, 497-509, (1957)), air dried, and counted in a liquid scintillation counter with 15 milliliters of counting fluid (two parts toluene containing 0.4% w/v New England Nuclear Omnifluor: 1 part Triton X-100). The tests were conducted in triplicate and were accompanied by control tests in which all ingredients,proportions and conditions were the same except that no test compound was included. From the data obtained was calculated the percent inhibition of lipid synthesis by the test compound in each case.
Compound 2 was tested with respect to all of the animals. The other six compounds were tested only with respect to the pig.
From these and other tests, it was established that in pigs there is little lipogenic activity in the liver tissue. From these and other tests, it also has been established that swine adipose tissue utilizes glucose for lipogenesis, and to be the major site of fatty acid synthesis. The data obtained from the tests using adipose tissue and glucose are set out in Table 1, as the percent inhibition of lipogenesis compared to the results obtained in the control tests wherein only the test compound was omitted.

The test system of series [5] is dog adipose tissue. Put plainly: inhibition of glucose utilization in dog adipose tissue slices. Format: cell-based. The note with it: 100 micrograms per milliliter, 2 hours.
From the text: as §1, §2, §3

The test system of series [6] is sheep liver. Put plainly: inhibition of glucose incorporation into lipids in sheep liver slices. Type of series: cell-based. Particulars: 100 micrograms per milliliter, 2 hours.
From the text: as §1, §2, §3

Series [7] has as its system cat adipose tissue. Put plainly: inhibition of glucose utilization in cat adipose tissue slices. Type of series: cell-based. The note with it: 100 micrograms per milliliter, 2 hours, result in words.
From the text: as §1, §2, §3

In series [8] the test system is rabbit liver. Put plainly: inhibition of glucose incorporation in rabbit liver slices. Format: cell-based. Particulars: 100 micrograms per milliliter, 2 hours.
From the text: as §1, §2, §3

Series [9] deals with sheep adipose tissue. Put plainly: inhibition of glucose incorporation into lipids in sheep adipose tissue slices. Type of series: cell-based. Particulars: 100 micrograms per milliliter, 2 hours.
From the text: as §1, §2, §3

`C=CCNC(=O)C1COc2ccccc2C1` (stereo not drawn) [Compound 2, 3,4-Dihydro-N-(2-propenyl)-2H-1-benzopyran-3-carboxamide]: the “inhibition of glucose incorporation in adipose tissue” value in series [1] turned out to be 22%; in series [9] it was 36%. The symptom of toxicity result in series [2] was “No symptom of toxicity due to the test compound was noted”. In addition, the “effect on lipogenesis in vivo” value in [2] (day 13 (one week off the drug)) is “significantly reduced lipogenesis”. For the same molecule, the “inhibition of glucose utilization in the liver” value in series [3] was 26%. In series [4], the inhibition at 100 µg/mL was 83%. Moreover, the entries for the “inhibition of glucose utilization in adipose tissue” value in series [5] and in series [7] were 73% and “did not inhibit glucose utilization”, respectively. Further, the “inhibition of glucose incorporation in the liver” value in [6] worked out at 32%. In addition, the “inhibition of glucose incorporation into liver” value in [8] is listed as 9%.
On to `C=CCNC(=O)C1CCc2cc(-c3ccccc3)ccc2O1` (stereo not drawn) [Compound 4, 3,4-Dihydro-6-phenyl-N-(2-propenyl)-2H-1-benzopyran-2-carboxamide], for which, in [4], the inhibition at 100 µg/mL was 76%.
On the same count and under the same terms, the value for `C=CCNC(=O)C1CCc2cc(C)ccc2O1` (stereo not drawn) [Compound 9, 3,4-Dihydro-6-methyl-N-(2-propenyl)-2H-1-benzopyran-2-carboxamide] was 70%; that for `C=CCNC(=O)C1CCc2ccccc2O1` (stereo not drawn) [Compound 3, 3,4-Dihydro-N-(2-propenyl)-2H-1-benzopyran-2-carboxamide] was 72%; that for `C=CCNC(=O)C1CCc2cc(C3CCCCC3)ccc2O1` (stereo not drawn) [Compound 5, 6-Cyclohexyl-3,4-dihydro-N-(2-propenyl)-2H-1-benzopyran-2-carboxamide] was 40%.
In the case of `C=CCNC(=O)C1CCc2cc(Cl)ccc2O1` (stereo not drawn) [Compound 1, 6-Chloro-3,4-dihydro-N-(2-propenyl)-2H-1-benzopyran-2-carboxamide], in series [4], the inhibition at 100 µg/mL was found to be 59%.
Regarding `C=CCNC(=O)C1CCc2cc(Oc3ccccc3)ccc2O1` (stereo not drawn) [Compound 8, 3,4-Dihydro-6-phenoxy-N-(2-propenyl)-2H-1-benzopyran-2-carboxamide], the inhibition at 100 µg/mL in series [4] was 64%.
Consider `C=CCNC(=O)C1COc2ccc(Cl)cc2C1` (stereo not drawn) [Compound 6, 6-Chloro-3,4-dihydro-N-(2-propenyl)-2H-1-benzopyran-3-carboxamide], for which the inhibition at 100 µg/mL in [4] was determined as 67%.
The same measure, in the same setting: next, `C=CCNC(=O)[C@@H]1C[C@H](O)c2cc(Cl)ccc2O1` (relative stereo) [Compound 7, 6-Chloro-4-hydroxy-N-(2-propenyl)-2H-1-benzopyran-2-carboxamide (cis)]: 55%.

One may read the inhibition as the drop in the measured response relative to a control, in per cent.

For the origin of these results see patent US4178380A, “Benzopyrancarboxamides” (Shell Oil Company, priority 1978, dated 1979).
